Laboratory results: patent US11885796B2, “Assay to identify anti-cancer agents” (LDN Pharma Limited, priority 2017, dated 2024)

Legend:
Format in all cases: cell-based
BAD = assay: Level of expression of BAD by immunoblotting in HCT116 cells; conditions: 48 h (FIG. 2)
Method: (§1) In order to determine the effect of 6-β-naltrexol or naltrexone on the level of expression of OPRK1, A549 lung cancer or HCT116 colon cancer cells were seeded onto 6-well plates at a density of 2×10^5 cell/well, and allowed to adhere overnight. Cells were then cultured in the presence of naltrexone or 6-β-naltrexol at concentrations of 1 nM, 10 nM, 100 nM, 1 μM or 10 μM for a further 48 h. Cells were then harvested and processed for measurements of OPRK1, opioid receptor-μ1 (OPRM1) and GAPDH using standard immunoblotting techniques. The effect of 6-β-naltrexol or naltrexone on the level of expression of BAD was investigated by using the same protocol as outlined above. The effect was determined in HCT116 cells using either 10 nM or 10 μM of 6-β-naltrexol or 10 nM or 10 μM naltrexone (FIG. 2).

OPRK1 [1] = assay: Level of expression of OPRK1 by immunoblotting in HCT116 colon cancer cells; conditions: 1 nM to 10 μM, 48 h, immunoblotting (FIG. 1)
Method: as §1

OPRK1 [2] = assay: Level of expression of OPRK1 by immunoblotting in A549 lung cancer cells; conditions: 1 nM to 10 μM, 48 h, immunoblotting (FIG. 1)
Method: as §1

A549 and HCT116 cells = assay: Two-phase priming with 6-β-naltrexol then chemotherapy agent; cell number and viability by trypan blue cell counting
Method: The impact of combining 6-β-naltrexol with other chemotherapeutic agents was tested by culturing cells according to a treatment schedule that involved two phases of treatment. The first phase involved priming with 10 nM 6-β-naltrexol or 10 μM 6-β-naltrexol for 48 h, before treatment with another drug for a further 48 h. A549 and HCT116 cells were seeded into 6-well plates at a density of 2×10^5 cells/well and left to adhere overnight. Media was removed after 48 h, and cells were rinsed gently with drug-free medium. Fresh culture medium that contained cyclophosphamide (CPM), gemcitabine (GEM) or oxaliplatin (OXP) was then added to the cells. The concentrations of the chemotherapy agents used were approximately ¼ IC50, as established previously (Liu W M, Fowler D W, Smith P, Dalgleish A G. Pre-treatment with chemotherapy can enhance the antigenicity and immunogenicity of tumours by promoting adaptive immune responses. Br J Cancer. 2010 Jan. 5; 102(1):115-23). Cells were then left for a further 48 h before assessment of cell number of viability by cell counting using trypan blue dye as a way of discriminating live and dead cells. Cytostasis was indicated by a reduction in cell number and no associated reduction in cell viability.

Row | Compound | effect on the level of expression of BAD (BAD; 10 nM) | increase of the level of expression of BAD (BAD; 10 μM) | level of expression of OPRK1 (OPRK1 [1]) | level of expression of OPRK1 (OPRK1 [2]) | independent cytotoxicity of the priming agent (A549 and HCT116 cells; higher dose of 6-β-naltrexol alone (double doses control)) | cytotoxic effect of certain anti-cancer agents after priming (A549 and HCT116 cells; priming 48 h in an amount sufficient to raise OPRK1 expression by at least 10%, then cyclophosphamide, gemcitabine or oxaliplatin at approximately ¼ IC50 for 48 h) | effect on the level of expression of BAD (BAD; 10 μM)
1 | Oc1ccc2c3c1OC1[C@H](O)CC[C@@]4(O)[C@@H](C2)N(CC2CC2)CC[C@]314 (stereo partly drawn) [6-β-naltrexol, 17-(Cyclopropylmethyl)-4,5-epoxymorphinan-3,6beta, 14-triol] | negligible effect | more than 10% | increases the level of expression | increase the level of expression | absence of any independent increase in cytotoxicity | increased | –
2 | O=C1CC[C@@]2(O)[C@H]3Cc4ccc(O)c5c4[C@@]2(CCN3CC2CC2)[C@H]1O5 [naltrexone] | negligible effect | – | down-regulates the level of expression | increase the level of expression | – | – | negligible effect
